Source: patent US8357694B2, “Substituted 5,6-dihydro-6-phenylbenzo[F]isoquinolin-2-amine compounds” (ArQule, Inc., priority 2008, dated 2013)
Structures can show the parent of a compound that is named as a salt.

melting point | SMILES
85 to 87 °C | CC(C)(C)OC(=O)N1CCC[C@@H](Nc2ncc3c(n2)-c2ccccc2[C@@H](c2ccc(Cl)c(Cl)c2)C3)C1
85 to 87 °C | CC(C)(C)OC(=O)N1CCC[C@@H](Nc2ncc3c(n2)-c2ccccc2[C@H](c2ccc(Cl)c(Cl)c2)C3)C1
159 to 160 °C | Nc1ncc2c(n1)-c1ccccc1C(c1ccc(Cl)c(Cl)c1)C2 (stereo not drawn)
159 to 160 °C | Nc1ncc2c(n1)-c1ccccc1[C@@H](c1ccc(Cl)c(Cl)c1)C2
181 to 183 °C | Clc1ccc(C2Cc3cnc(Nc4ccc(CCN5CCCCC5)cc4)nc3-c3ccccc32)cc1Cl (stereo not drawn)
157 to 158 °C | Clc1ccc([C@H]2Cc3cnc(Nc4ccc(CCN5CCCCC5)cc4)nc3-c3ccccc32)cc1Cl
159 to 160 °C | Nc1ncc2c(n1)-c1ccccc1[C@H](c1ccc(Cl)c(Cl)c1)C2
94 to 96 °C | OCCc1ccc(Nc2ncc3c(n2)-c2ccccc2C(c2ccc(Cl)c(Cl)c2)C3)cc1 (stereo not drawn)
113 to 115 °C | OCCc1ccc(Nc2ncc3c(n2)-c2ccccc2[C@@H](c2ccc(Cl)c(Cl)c2)C3)cc1
146 to 153 °C | CN(CCc1ccccc1)CCc1ccc(Nc2ncc3c(n2)-c2ccccc2[C@H](c2cccc(Br)c2)C3)cc1 (as salt: HCl) [Example 81, (S)-6-(3-bromophenyl)-N-(4-(2-(methyl(phenethyl)amino)ethyl)phenyl)-5,6-dihydrobenzo[h]quinazolin-2-amine]
221 to 225 °C | COCCNCCc1ccc(Nc2ncc3c(n2)-c2ccccc2[C@H](c2ccc(F)c(F)c2)C3)cc1 (as salt: HCl) [Example 82, (S)-6-(3,4-difluorophenyl)-N-(4-(2-(2-methoxyethylamino)ethyl)phenyl)-5,6-dihydrobenzo[h]quinazolin-2-amine]
158 to 164 °C | CN(CCc1ccc(Nc2ncc3c(n2)-c2ccccc2[C@H](c2ccccc2F)C3)cc1)C1CCCCC1 (as salt: HCl) [Example 95, (R)—N-(4-(2-(cyclohexyl(methyl)amino)ethyl)phenyl)-6-(2-fluorophenyl)-5,6-dihydrobenzo[h]quinazolin-2-amine]
139 to 147 °C | COCCNCc1cccc(Nc2ncc3c(n2)-c2ccccc2[C@H](c2ccccc2F)C3)c1 (as salt: HCl) [Example 158, (R)-6-(2-fluorophenyl)-N-(3-((2-methoxyethylamino)methyl)phenyl)-5,6-dihydrobenzo[h]quinazolin-2-amine]
261 to 263 °C | Clc1ccc([C@@H]2Cc3cnc(Nc4ccc(CCN5CCCCC5)cc4)nc3-c3ccccc32)cc1 (as salt: hydrochloride)
75 to 77 °C | CCCCN(C)CCc1ccc(Nc2ncc3c(n2)-c2ccccc2[C@H](c2ccc(Cl)cc2)C3)cc1 (as salt: hydrochloride)
163 to 167 °C | CCCCN(C)CCc1cccc(Nc2ncc3c(n2)-c2ccccc2[C@H](c2ccccc2F)C3)c1 (as salt: hydrochloride)
154 to 157 °C | CN(CCc1ccccc1)CCc1cccc(Nc2ncc3c(n2)-c2ccccc2[C@H](c2ccc(Cl)c(Cl)c2)C3)c1 (as salt: hydrochloride)
220 to 225 °C | COCCN1CCN(CCc2cccc(Nc3ncc4c(n3)-c3ccccc3[C@H](c3ccc(Cl)c(Cl)c3)C4)c2)CC1 (as salt: hydrochloride)
145 to 150 °C | CCCCN(C)CCc1ccc(Nc2ncc3c(n2)-c2ccccc2C(c2ccc(Cl)cc2)C3)cc1 (stereo not drawn) (as salt: hydrochloride)
143 to 145 °C | COCCN1CCN(CCc2ccc(Nc3ncc4c(n3)-c3ccccc3[C@@H](c3ccccc3Cl)C4)cc2)CC1 (as salt: hydrochloride)

melting point | SMILES
164 to 167 °C | Clc1ccccc1[C@H]1Cc2cnc(Nc3ccc(CCN4CCCCC4)cc3)nc2-c2ccccc21 (as salt: hydrochloride)
208 to 212 °C | COCCN1CCN(CCc2ccc(Nc3ncc4c(n3)-c3ccccc3C(c3ccc(Cl)cc3Cl)C4)cc2)CC1 (stereo not drawn) (as salt: hydrochloride)
154 to 155 °C | Nc1ncc2c(n1)-c1ccccc1[C@H](c1ccccc1F)C2 (as salt: hydrochloride) [Example 24, (R)-6-(2-fluorophenyl)-5,6-dihydrobenzo[h]quinazolin-2-amine]
170 to 175 °C | Clc1ccc(C2Cc3cnc(Nc4ccc(CCN5CCCCC5)cc4)nc3-c3ccccc32)cc1 (stereo not drawn) (as salt: hydrochloride) [Example 53, 6-(4-chlorophenyl)-N-(4-(2-(piperidin-1-yl)ethyl)phenyl)-5,6 dihydrobenzo[h]quinazolin-2-amine]
204 to 214 °C | COCCN1CCN(CCc2ccc(Nc3ncc4c(n3)-c3ccccc3C(c3ccc(Cl)cc3)C4)cc2)CC1 (stereo not drawn) (as salt: hydrochloride) [Example 56, 6-(4-chlorophenyl)-N-(4-(2-(4-(2-methoxyethyl)piperazin-1-yl)ethyl)phenyl)-5,6-dihydrobenzo[h]quinazolin-2-amine hydrochloride]
214 to 218 °C | Fc1ccc(C2Cc3cnc(Nc4ccc(CCN5CCCCC5)cc4)nc3-c3ccccc32)cc1F (stereo not drawn) (as salt: hydrochloride) [Example 57, 6-(3,4-difluorophenyl)-N-(4-(2-(piperidin-1-yl)ethyl)phenyl)-5,6-dihydrobenzo[h]quinazolin-2-amine]
85 to 91 °C | CCCCN(C)CCc1ccc(Nc2ncc3c(n2)-c2ccccc2C(c2ccc(F)c(F)c2)C3)cc1 (stereo not drawn) (as salt: hydrochloride) [Example 58, N-(4-(2-(butyl(methyl)amino)ethyl)phenyl)-6-(3,4-difluorophenyl)-5,6-dihydrobenzo[h]quinazolin-2-amine]
107 to 114 °C | CN(CCc1ccc(Nc2ncc3c(n2)-c2ccccc2C(c2ccc(F)c(F)c2)C3)cc1)C1CCCCC1 (stereo not drawn) (as salt: hydrochloride) [Example 60, N-(4-(2-(cyclohexyl(methyl)amino)ethyl)phenyl)-6-(3,4-difluorophenyl)-5,6-dihydrobenzo[h]quinazolin-2-amine]
212 to 216 °C | COCCN1CCN(CCc2ccc(Nc3ncc4c(n3)-c3ccccc3[C@H](c3ccccc3F)C4)cc2)CC1 (as salt: hydrochloride) [Example 66, (R)-6-(2-fluorophenyl)-N-(4-(2-(4-(2-methoxyethyl)piperazin-1-yl)ethyl)phenyl)-5,6-dihydrobenzo[h]quinazolin-2-amine hydrochloride]
170 to 174 °C | Fc1ccccc1[C@@H]1Cc2cnc(Nc3ccc(CCN4CCCCC4)cc3)nc2-c2ccccc21 (as salt: hydrochloride) [Example 67, (R)-6-(2-fluorophenyl)-N-(4-(2-(piperidin-1-yl)ethyl)phenyl)-5,6-dihydrobenzo[h]quinazolin-2-amine hydrochloride]
225 to 230 °C | Clc1ccc(C2Cc3cnc(Nc4ccc(CCN5CCCCC5)cc4)nc3-c3ccccc32)c(Cl)c1 (stereo not drawn) (as salt: hydrochloride) [Example 76, 6-(2,4-dichlorophenyl)-N-(4-(2-(piperidin-1-yl)ethyl)phenyl)-5,6-dihydrobenzo[h]quinazolin-2-amine hydrochloride]
263 to 265 °C | COCCN1CCN(CCc2ccc(Nc3ncc4c(n3)-c3ccccc3[C@H](c3cccc(Br)c3)C4)cc2)CC1 (as salt: hydrochloride) [Example 77, (S)-6-(3-bromophenyl)-N-(4-(2-(4-(2-methoxyethyl)piperazin-1-yl)ethyl)phenyl)-5,6-dihydrobenzo[h]quinazolin-2-amine hydrochloride]
120 to 125 °C | Brc1cccc([C@@H]2Cc3cnc(Nc4ccc(CCN5CCCCC5)cc4)nc3-c3ccccc32)c1 (as salt: hydrochloride) [Example 78, (S)-6-(3-bromophenyl)-N-(4-(2-(piperidin-1-yl)ethyl)phenyl)-5,6-dihydrobenzo[h]quinazolin-2-amine hydrochloride]
167 to 172 °C | CN(CCc1ccc(Nc2ncc3c(n2)-c2ccccc2[C@H](c2cccc(Br)c2)C3)cc1)C1CCCCC1 (as salt: hydrochloride) [Example 79, (S)-6-(3-bromophenyl)-N-(4-(2-(cyclohexyl(methyl)amino)ethyl)phenyl)-5,6-dihydrobenzo[h]quinazolin-2-amine hydrochloride]
146 to 153 °C | CCCCN(C)CCc1ccc(Nc2ncc3c(n2)-c2ccccc2[C@H](c2cccc(Br)c2)C3)cc1 (as salt: hydrochloride) [Example 80, (S)-6-(3-bromophenyl)-N-(4-(2-(butyl(methyl)amino)ethyl)phenyl)-5,6-dihydrobenzo[h]quinazolin-2-amine hydrochloride]
190 to 192 °C | COCCN1CCN(CCc2ccc(Nc3ncc4c(n3)-c3ccccc3[C@H](c3ccc(F)c(F)c3)C4)cc2)CC1 (as salt: hydrochloride) [Example 83, N-(4-(2-(4-(2-(S)-6-(3,4-difluorophenyl)-N-(4-(2-(4-(2-methoxyethyl)piperazin-1-yl)ethyl)phenyl)-5,6-dihydrobenzo[h]quinazolin-2-amine hydrochloride]
163 to 165 °C | Fc1ccc([C@@H]2Cc3cnc(Nc4ccc(CCN5CCCCC5)cc4)nc3-c3ccccc32)cc1F (as salt: hydrochloride) [Example 84, (S)-6-(3,4-difluorophenyl)-N-(4-(2-(piperidin-1-yl)ethyl)phenyl)-5,6-dihydrobenzo[h]quinazolin-2-amine hydrochloride]
96 to 98 °C | CN(CCc1ccc(Nc2ncc3c(n2)-c2ccccc2[C@H](c2ccc(F)c(F)c2)C3)cc1)C1CCCCC1 (as salt: hydrochloride) [Example 85, (S)—N-(4-(2-(cyclohexyl(methyl)amino)ethyl)phenyl)-6-(3,4-difluorophenyl)-5,6-dihydrobenzo[h]quinazolin-2-amine hydrochloride]
85 to 87 °C | COCCNCCc1ccc(Nc2ncc3c(n2)-c2ccccc2[C@H](c2ccc(F)c(F)c2)C3)cc1 (as salt: hydrochloride) [Example 86, (S)-6-(3,4-difluorophenyl)-N-(4-(2-(2-methoxyethylamino)ethyl)phenyl)-5,6-dihydrobenzo[h]quinazolin-2-amine hydrochloride]
